Test results as given in ChEMBL document CHEMBL1201862, “PubChem BioAssay data set” (2004).
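Assay format: 96-well plates, 48-hour exposure. At the GI50, growth is halved.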 Calls of active or inactive are those of the source. No stated cut-off is given here; in the data, active = GI50 up to about 1.1 µM and inactive = higher.

How the values were obtained:
Assay in all cases: NCI-60 cell line screen, 48 h
[1] = system: EKVX
[2] = system: CAKI-1
[3] = system: HOP-62
[4] = system: IGROV-1
[5] = system: NCI-H522
[6] = system: RPMI-8226
[7] = system: UO-31
[8] = system: DU-145
[9] = system: COLO 205
[10] = system: NCI-H23
[11] = system: MDA-N
[12] = system: UACC-257
[13] = system: OVCAR-4
[14] = system: SK-MEL-5
[15] = system: HCT-116
[16] = system: SN12C
[17] = system: TK-10
[18] = system: SW-620
[19] = system: BT-549
[20] = system: K562
[21] = system: T47D
[22] = system: HCT-15
[23] = system: MDA-MB-435
[24] = system: UACC-62
[25] = system: LOX IMVI
[26] = system: Hs-578T
[27] = system: RXF 393
[28] = system: SF-268
[29] = system: HL-60
[30] = system: KM12
[31] = system: OVCAR-8
[32] = system: Malme-3M
[33] = system: A498
[34] = system: NCI-H460
[35] = system: SK-MEL-2
[36] = system: OVCAR-5
[37] = system: NCI/ADR-RES
[38] = system: M14
[39] = system: 786-0
[40] = system: PC-3
[41] = system: SF-539
[42] = system: MCF7
[43] = system: OVCAR-3
[44] = system: ACHN
[45] = system: U-251
[46] = system: SR
[47] = system: MOLT-4
[48] = system: NCI-H226
[49] = system: HT-29
[50] = system: HOP-92
[51] = system: CCRF-CEM
[52] = system: SK-MEL-28
[53] = system: SNB-19
[54] = system: MDA-MB-231
[55] = system: SF-295
[56] = system: SNB-75
[57] = system: SK-OV-3
[58] = system: HCC 2998
[59] = system: A549

**Q.** With `C=C(Cl)/C(=C/Cl)CCC(Br)C(C)(C)Cl.C=C(Cl)/C(=C\Cl)CCC(Br)C(C)(C)Cl` (centres undefined) as the molecule, how does the GI50 [1] read?
**A.** > 10 µM (inactive)

**Q.** What about the GI50 [2] of the same molecule?
**A.** > 10 µM (inactive)

**Q.** What about the GI50 [3] of the same molecule?
**A.** > 10 µM (inactive)

**Q.** And the GI50 [4]?
**A.** > 10 µM (inactive)

**Q.** And the GI50 [5]?
**A.** 9.77 µM (inactive)

**Q.** What about the GI50 [6] of the same molecule?
**A.** > 10 µM (inactive)

**Q.** What about the GI50 [7] of the same molecule?
**A.** > 10 µM (inactive)

**Q.** What about the GI50 [8] of the same molecule?
**A.** > 10 µM (inactive)

**Q.** What about the GI50 [9] of the same molecule?
**A.** > 10 µM (inactive)

**Q.** What about the GI50 [10] of the same molecule?
**A.** > 10 µM (inactive)

**Q.** And the GI50 [11]?
**A.** > 10 µM (inactive)

**Q.** And the GI50 [12]?
**A.** > 10 µM (inactive)

**Q.** And the GI50 [13]?
**A.** > 10 µM (inactive)

**Q.** What about the GI50 [14] of the same molecule?
**A.** > 10 µM (inactive)

**Q.** What about the GI50 [15] of the same molecule?
**A.** > 10 µM (inactive)

**Q.** And the GI50 [16]?
**A.** > 10 µM (inactive)

**Q.** What about the GI50 [17] of the same molecule?
**A.** > 10 µM (inactive)

**Q.** What about the GI50 [18] of the same molecule?
**A.** > 10 µM (inactive)

**Q.** What about the GI50 [19] of the same molecule?
**A.** > 10 µM (inactive)

**Q.** What about the GI50 [20] of the same molecule?
**A.** 5.43 µM (inactive)

**Q.** And the GI50 [21]?
**A.** > 10 µM (inactive)

**Q.** What about the GI50 [22] of the same molecule?
**A.** > 10 µM

**Q.** And the GI50 [23]?
**A.** > 10 µM (inactive)

**Q.** And the GI50 [24]?
**A.** > 10 µM (inactive)

**Q.** And the GI50 [25]?
**A.** > 10 µM (inactive)

**Q.** What about the GI50 [26] of the same molecule?
**A.** > 10 µM (inactive)

**Q.** And the GI50 [27]?
**A.** > 10 µM (inactive)

**Q.** What about the GI50 [28] of the same molecule?
**A.** > 10 µM (inactive)

**Q.** What about the GI50 [29] of the same molecule?
**A.** 3.56 µM (inactive)

**Q.** And the GI50 [30]?
**A.** > 10 µM (inactive)

**Q.** And the GI50 [31]?
**A.** > 10 µM (inactive)

**Q.** What about the GI50 [32] of the same molecule?
**A.** > 10 µM (inactive)

**Q.** And the GI50 [33]?
**A.** > 10 µM (inactive)

**Q.** And the GI50 [34]?
**A.** > 10 µM (inactive)

**Q.** What about the GI50 [35] of the same molecule?
**A.** > 10 µM (inactive)

**Q.** And the GI50 [36]?
**A.** > 10 µM (inactive)

**Q.** And the GI50 [37]?
**A.** > 10 µM (inactive)

**Q.** What about the GI50 [38] of the same molecule?
**A.** > 10 µM (inactive)

**Q.** What about the GI50 [39] of the same molecule?
**A.** > 10 µM (inactive)

**Q.** And the GI50 [40]?
**A.** > 10 µM (inactive)

**Q.** What about the GI50 [41] of the same molecule?
**A.** > 10 µM (inactive)

**Q.** What about the GI50 [42] of the same molecule?
**A.** > 10 µM (inactive)

**Q.** What about the GI50 [43] of the same molecule?
**A.** > 10 µM (inactive)

**Q.** And the GI50 [44]?
**A.** > 10 µM (inactive)

**Q.** What about the GI50 [45] of the same molecule?
**A.** > 10 µM (inactive)

**Q.** What about the GI50 [46] of the same molecule?
**A.** 5.45 µM (inactive)

**Q.** And the GI50 [47]?
**A.** 3.1 µM (inactive)

**Q.** What about the GI50 [48] of the same molecule?
**A.** > 10 µM (inactive)

**Q.** And the GI50 [49]?
**A.** > 10 µM (inactive)

**Q.** And the GI50 [50]?
**A.** > 10 µM (inactive)

**Q.** And the GI50 [51]?
**A.** 2.66 µM (inactive)

**Q.** What about the GI50 [52] of the same molecule?
**A.** > 10 µM (inactive)

**Q.** And the GI50 [53]?
**A.** > 10 µM (inactive)

**Q.** And the GI50 [54]?
**A.** > 10 µM (inactive)

**Q.** And the GI50 [55]?
**A.** > 10 µM (inactive)

**Q.** And the GI50 [56]?
**A.** > 10 µM (inactive)

**Q.** What about the GI50 [57] of the same molecule?
**A.** > 10 µM (inactive)

**Q.** And the GI50 [58]?
**A.** > 10 µM (inactive)

**Q.** And the GI50 [59]?
**A.** > 10 µM (inactive)
